One assay concerns RAW-Blue cells. Kind of assay: NF-κB activation (SEAP, Quanti-Blue) by CL or LPS in RAW-Blue cells. The format is cell-based, murine. The note with it: CL alone, overnight. As for the experimental part:
RAW-Blue™ cells were seeded the day before the experiment at 5 × 10^5 cells/mL in 48-well plates (500 μL/well).
These cells express a secreted embryonic alkaline phosphatase (SEAP) when NF-κB is activated. NF-κB activation was measured by measuring the alkaline phosphatase produced by RAW-Blue™ cells using the Quanti-Blue™ reagent (InvivoGen), according to the manufacturer’s instructions.
Fig. 3 Saturated but not unsaturated CLs have pro-inflammatory properties. a RAW-Blue™ cells were incubated overnight with the indicated amount of CL or LPS, supernatants were collected, and NF-κB activation quantified via Quanti-Blue™ test and reported here as fold induction as compared to control. Unpaired t test: differences with respect to the control (Ctrl) are not significant if p > 0.05 (no symbol); *p ≤ 0.0007. b Immortalized BMDM cells were incubated overnight with the indicated amount of CL or LPS; supernatants were collected and TNF-α quantified via ELISA assay. c, d Primary human monocytes were incubated overnight with the indicated amount of CL or LPS with or without the NLRP3 inhibitor MCC950, supernatants were collected, and TNF-α and IL-1β were quantified via ELISA assay. Graphs are representative of experiments from six different donors. Unpaired t test: differences with respect to the control (Ctrl) are not significant if p > 0.05 (no symbol); *p ≤ 0.021. Each bar represents the mean + standard deviation of three biological replicates (n = 3). Graphs are representative of at least three independent experiments

In a further assay the target is T1, human TLR4/MD2/CD14 (Homo sapiens, UniProt O00206+Q9Y6Y9).
T1 construct: expressed in transfected cells; host or cells: HEK293 (ATCC CRL1573), transient transfection with jetPEI
Put plainly: Inhibition of LPS-induced NF-κB luciferase reporter in HEK293 cells transfected with human TLR4/MD2/CD14. It is filed as cell-based. The note with it: for inhibition of LPS-induced signaling (LPS dose-response, 0 to 1000 ng/mL), mode of action: 1 h CL pre-incubation. As for the experimental part: Cells were seeded at 4 × 10^4 cells/mL in 96-well plates (200 μL/well) and transiently transfected 4 days later. Expression vectors containing an NF-κB transcription reporter vector-encoding firefly luciferase (10 ng/well pNF-κB-luc from Clontech), and a constitutively active reporter vector-encoding Renilla luciferase (5 ng/well phRG-TK; Promega), together with empty vector (pcDNA3.1 from Invitrogen Cat. N. V79020) and cDNA encoding human membrane CD14 (3 ng/well) and human or murine TLR4 and MD2 (3 ng/well) were mixed with jetPEI (Polyplus transfection Cat.N. 101-10N) and incubated with cells according to the manufacturer’s instructions.
After treatment supernatants were discarded, cells were washed with PBS and lysed with passive lysis buffer (Promega Cat.N. E1941). Luciferase and Renilla activity on cell lysates were quantified on a BioTek Synergy HT microplate reader using home-made luciferase reagent (20 mM Tricine, 2.67 mM MgSO4·7H2O, 0.265 mM (MgCO3)4Mg(OH)2·5H2O, 0.1 mM EDTA, 33.3 mM DTT, 530 μM ATP, 270 μM Acetyl Coenzyme A (Lithium salt), 470 μM luciferin (Biosynth), pH 7.8, diluted two times in water before use), or coelenterazine (Biosynth) dissolved in ethanol at 1 mg/mL and diluted 500 times in PBS before use as previously described. Firefly and Renilla luciferase activity on cell lysates were normalized, and data were expressed as fold induction as compared to unstimulated conditions.
In contrast to C16:0 and C18:0, C14:0 CL acted as an agonist in murine but not human cells (Fig. 3), a property similar to that of the LPS variant lipid IVa. to establish whether C14:0, like lipid IVa, is a weak human TLR4 antagonist, we tested the ability of all saturated CLs to inhibit signaling induced by LPS over a range of concentrations. For each CL, cells transfected with human TLR4/MD2/CD14 were pre-incubated with medium alone or two different CL concentrations for 1 h, and then washed and incubated for 6 h with increasing amounts of LPS (from 0 to 1000 ng/mL). […] The dose–response curve of LPS was shifted to the right.
(§1) Fig. 6 C14:0 is a competitive human TLR4 antagonist. HEK293 cells were transfected with plasmids encoding hTLR4, hMD2, and hCD14 together with a luciferase reporter plasmid dependent on NF-κB activation and a constitutively active reporter vector-encoding renilla luciferase. Two days after transfection, cells were incubated for 1 h with medium alone or the indicated amount of CLs, then washed and incubated 6 h with increasing amount of LPS. Luciferase and renilla were then quantified in cell lysate, and normalized and reported here as fold induction as compared to control. Each bar represents the mean ± standard deviation of three biological replicates (n = 3). Graphs are representative of at least three independent experiments
as §1, with “7 Unsaturated cardiolipins are” for “6 C14:0 is a”, “antagonists.” for “antagonist.”, “CLs, and” for “CLs,”
To quantify and compare the potency of CLs as inhibitors, we determined IC50 values in HEK293 cells transfected with human TLR4/MD2/CD14, for each of the antagonists (Fig. 8 and Table 1). […]
On the technique in general: Reporter assays use an easily measured gene product as a stand-in for the process of interest.

The text below walks through data of publication PMC6697720, “Saturation of acyl chains converts cardiolipin from an antagonist to an activator of Toll-like receptor-4” (Cellular and Molecular Life Sciences: CMLS, 2019).

Each structure is given as a SMILES string.

T1 sequence (O00206 24-839): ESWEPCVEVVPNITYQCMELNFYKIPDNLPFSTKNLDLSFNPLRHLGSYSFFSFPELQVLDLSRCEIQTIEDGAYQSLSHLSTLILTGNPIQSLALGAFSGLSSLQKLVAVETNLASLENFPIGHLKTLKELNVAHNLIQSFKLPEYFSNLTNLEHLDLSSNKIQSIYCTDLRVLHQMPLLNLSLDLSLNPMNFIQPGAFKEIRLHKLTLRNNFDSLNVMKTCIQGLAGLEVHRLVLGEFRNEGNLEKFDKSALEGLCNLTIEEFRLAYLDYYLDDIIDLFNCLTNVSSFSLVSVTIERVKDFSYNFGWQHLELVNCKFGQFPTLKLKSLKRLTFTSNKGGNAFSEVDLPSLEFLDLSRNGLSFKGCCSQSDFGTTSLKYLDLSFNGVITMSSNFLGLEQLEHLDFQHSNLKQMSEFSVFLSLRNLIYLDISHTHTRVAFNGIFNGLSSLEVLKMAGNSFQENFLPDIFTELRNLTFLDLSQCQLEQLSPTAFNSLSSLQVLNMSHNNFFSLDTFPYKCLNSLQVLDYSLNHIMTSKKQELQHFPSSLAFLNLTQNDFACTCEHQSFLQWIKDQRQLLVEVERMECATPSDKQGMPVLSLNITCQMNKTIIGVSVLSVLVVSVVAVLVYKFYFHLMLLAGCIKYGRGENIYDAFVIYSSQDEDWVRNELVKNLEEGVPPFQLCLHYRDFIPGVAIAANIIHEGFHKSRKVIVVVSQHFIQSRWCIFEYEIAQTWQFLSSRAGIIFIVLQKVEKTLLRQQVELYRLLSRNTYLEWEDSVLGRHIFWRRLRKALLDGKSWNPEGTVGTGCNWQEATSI
T1 sequence (Q9Y6Y9 19-160): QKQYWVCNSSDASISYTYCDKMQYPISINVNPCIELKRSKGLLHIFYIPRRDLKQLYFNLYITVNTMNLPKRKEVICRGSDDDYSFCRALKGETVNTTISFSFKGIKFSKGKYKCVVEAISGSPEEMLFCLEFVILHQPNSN

As a reminder, the IC50 is the concentration at which inhibition is half-maximal. `CCCCCCCCCCCCCC(=O)OC[C@H](COP(=O)(O)OCC(O)COP(=O)(O)OC[C@@H](COC(=O)CCCCCCCCCCCCC)OC(=O)CCCCCCCCCCCCC)OC(=O)CCCCCCCCCCCCC` (stereo partly shown) [C14:0 CL]: in the assay with RAW-Blue cells, the NF-κB activation entry was “induced”. Moreover, the “inhibition of LPS-induced signaling (LPS dose-response, 0 to 1000 ng/mL), mode of action” value is “competitive inhibitor” at human TLR4/MD2/CD14 (washed, 6 h LPS) and “competitive TLR4 antagonists” on human TLR4/MD2/CD14 (washed, 6 h LPS, listed as C14:0). Moreover, the IC50 is around 325 µM on human TLR4/MD2/CD14 (HEK293 hTLR4/hMD2/hCD14, 1 h CL, washed, 6 h LPS, Prism fit of Fig. 8 data) and around 300 µM on human TLR4/MD2/CD14 (approx., HEK293 human TLR4/MD2/CD14).

As for `CCCCCCCCCCCCCCCCCC(=O)OC[C@H](COP(=O)(O)OCC(O)COP(=O)(O)OC[C@@H](COC(=O)CCCCCCCCCCCCCCCCC)OC(=O)CCCCCCCCCCCCCCCCC)OC(=O)CCCCCCCCCCCCCCCCC` (stereo partly shown) [C18:0 CL], the NF-κB activation result with RAW-Blue cells was “induced”. For the same compound, the “inhibition of LPS-induced signaling (LPS dose-response, 0 to 1000 ng/mL), mode of action” value on human TLR4/MD2/CD14 (washed, 6 h LPS) is “did not inhibit”.
